From patent US20260159528A1, “HETEROCYCLIC COMPOUNDS AS TRIGGERING RECEPTOR EXPRESSED ON MYELOID CELLS 2 AGONISTS AND METHODS OF USE” (Vigil Neuroscience, Inc., priority 2021, published 2026)

Target: T1, human TREM2 (Homo sapiens, UniProt Q9NZC2)
T1 construct: expressed in transfected cells; host or cells: HEK293T
Experiment: TREM2 agonist potency by cellular Syk phosphorylation (AlphaLisa) in HEK293T-hTREM2 cells
Format: cell-based
Conditions: Table D-2; HEK293 cells expressing human TREM2 and DAP12; pSyk AlphaLisa
Experimental: In vitro Measurement of Triggering Receptor Expressed on Myeloid Cells 2 activity using cellular phosphorylation of Spleen Tyrosine Kinase (“Syk”) Assays
Measurement of TREM2 agonist potency was done using a HEK cell line expressing human TREM2 and DAP12 (HEK293T-hTREM2 cells). Binding of small molecules to, and activation of, TREM2 increases the phosphorylation of Syk. The resultant levels of Syk phosphorylation are measured using a commercial AlphaLisa reagent kit. To perform the assay, HEK-hTREM2 cells were plated at 14,000 cells per well in a 384 well plate, in 25 µL of complete growth media and incubated at 37° C., 5% CO2 for 20-24 hours.
Prior to the assay, test compounds were diluted in the 384 well plates in assay buffer and allowed to equilibrate for 30 minutes. Growth media was removed from cell plates by inversion on blotting paper, and 25 μL of test articles in assay buffer was added to cells. Cells were incubated for 45 minutes at room temperature. After 45 minutes, assay buffer was removed and 10 μL of lysis buffer was added. Plates were shaken for 20 minutes at 350 RPM at room temperature. After complete lysis, AlphaLisa reagents were added to the lysate, and fluorescence intensity was measured using a Perkin Elmer Envision plate reader. Intensities were used to generate a standard curve, and % activation was calculated. Curve fitting was performed using Prism v9 software, log(agonist) vs response—variable slope (four parameters), and EC50s were calculated from the curve fit.
The results presented in Table D have been generated with the in vitro assay described above. This assay may be used to test any of the compounds described herein to assess and characterize a compound's ability to act as an agonist of TREM2.

T1 sequence (Q9NZC2 19-230): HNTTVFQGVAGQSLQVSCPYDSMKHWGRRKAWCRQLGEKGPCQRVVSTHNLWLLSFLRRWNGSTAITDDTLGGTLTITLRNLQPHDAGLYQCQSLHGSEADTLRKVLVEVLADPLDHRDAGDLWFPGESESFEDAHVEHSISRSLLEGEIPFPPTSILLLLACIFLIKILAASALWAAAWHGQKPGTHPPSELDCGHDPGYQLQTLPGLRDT
T1 sequence (O43914 22-113 partner): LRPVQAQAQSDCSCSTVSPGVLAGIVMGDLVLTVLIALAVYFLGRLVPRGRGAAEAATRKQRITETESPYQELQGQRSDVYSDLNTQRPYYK

| EC50 [nM] | Structure (SMILES) |
| --- | --- |
| 500 to 3000 | C/N=c1/sc2c(-c3ccc(Cl)cc3F)nc(N3C[C@@H](C)O[C@@H](c4cnn(C5CC5)c4)C3)nc2n1CCF [Compound I-159, (E)-7-(4-chloro-2-fluoro-phenyl)-3-(2-fluoroethyl)-N-methyl-5-[(2S,6R)-2-(1-cyclopropylpyrazol-4-yl)-6-methyl-morpholin-4-yl]thiazolo[4,5-d]pyrimidin-2-imine] |
| ≤ 50 | COCn1cc([C@H]2CN(c3nc(-c4ccc(F)cc4F)c4sc(N(C)C)nc4n3)C[C@@H](C)O2)cn1 [Compound I-230, 7-(2,4-difluorophenyl)-5-[(2S,6R)-2-[1-(methoxymethyl)pyrazol-4-yl]-6-methyl-morpholin-4-yl]-N,N-dimethyl-thiazolo[4,5-d]pyrimidin-2-amine] |
| 500 to 3000 | CN(C)c1nc2nc([C@H]3CCO[C@@H](c4cnn(C5CC5)c4)C3)nc(C3CCCCC3)c2s1 (single isomer, unassigned) [Compound I-174] |
| 500 to 3000 | CC(C)n1ncc2c(-c3ccc(F)cc3F)nc(N3C[C@@H](C)O[C@@H](c4cnn(C5CC5)c4)C3)nc21 [Compound I-139] |
